In patent US20060105393A1, “Ligand-receptor tracking assays” (priority 2004, published 2006):

Key:
GHSR-1a receptor = biological target: T1, GHSR-1a receptor (Homo sapiens, UniProt Q92847); assay: Internalization of GHSR-1a with Ghrelin(1-19)-Texas Red (high content ligand tracking); format: cell-based; details: 1 μM competitor, 10 nM Ghrelin(1-19)-Texas Red, 30 minutes at 37° C. (FIG. 7)
T1 construct: expressed in transfected cells

NK3R [1] = biological target: T2, NK3R (Homo sapiens, UniProt P29371); details: 1 μM competitor, 1 nM Atto655-NKB, 30 minutes at 37° C. (FIG. 3)
T2 sequence (P29371 1-465): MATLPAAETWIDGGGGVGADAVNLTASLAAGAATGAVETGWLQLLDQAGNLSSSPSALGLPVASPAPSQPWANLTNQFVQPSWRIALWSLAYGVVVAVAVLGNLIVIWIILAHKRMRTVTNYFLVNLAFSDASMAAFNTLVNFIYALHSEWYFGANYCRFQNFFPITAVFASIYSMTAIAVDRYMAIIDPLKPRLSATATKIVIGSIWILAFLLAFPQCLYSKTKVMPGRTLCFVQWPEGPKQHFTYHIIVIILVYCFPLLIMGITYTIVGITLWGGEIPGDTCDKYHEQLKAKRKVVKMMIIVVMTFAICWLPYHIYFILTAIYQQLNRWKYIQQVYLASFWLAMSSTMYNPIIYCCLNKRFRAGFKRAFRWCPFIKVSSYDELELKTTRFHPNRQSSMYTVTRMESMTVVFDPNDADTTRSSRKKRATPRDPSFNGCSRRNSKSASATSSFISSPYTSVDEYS

NK3R [2] = biological target: T2, NK3R; details: mixed cells
SSTR-5 = biological target: T3, SSTR-5 (Homo sapiens, UniProt P35346); assay: Multiplexed internalization assay, SSTR-5 readout (Atto590-SST14) in mixed NK3R and SSTR5 cells; format: cell-based; details: for SSTR-5 internalization with excess competitor: 1 μM competitor (FIG. 5)
T3 construct: expressed in transfected cells

hV1bR = hV1bR (Homo sapiens, UniProt P47901); details: 100 nM competitor, 5 nM BO-TMR-vasopressin, 30 minutes at 37° C. (FIG. 9)
[3] = biological target: recombinant human Somatostatin receptor 5 (Homo sapiens, UniProt P35346); details: 1 μM competitor, 100 nM Atto590-SST14, 30 minutes at 37° C. (FIG. 1)
recombinant human Somatostatin receptor 5, sequence (P35346 whole entry): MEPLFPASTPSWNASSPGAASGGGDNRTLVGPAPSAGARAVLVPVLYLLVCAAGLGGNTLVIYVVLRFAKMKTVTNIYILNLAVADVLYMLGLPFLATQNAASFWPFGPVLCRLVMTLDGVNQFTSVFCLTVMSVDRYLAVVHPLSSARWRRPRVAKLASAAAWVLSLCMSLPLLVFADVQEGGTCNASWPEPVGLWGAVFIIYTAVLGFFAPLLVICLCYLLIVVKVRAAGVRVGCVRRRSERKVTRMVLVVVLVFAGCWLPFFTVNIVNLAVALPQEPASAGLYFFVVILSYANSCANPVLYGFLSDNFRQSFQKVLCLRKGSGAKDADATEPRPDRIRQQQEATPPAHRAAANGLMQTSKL

T3 sequence (P35346 whole entry): as above
T1 sequence (Q92847 whole entry): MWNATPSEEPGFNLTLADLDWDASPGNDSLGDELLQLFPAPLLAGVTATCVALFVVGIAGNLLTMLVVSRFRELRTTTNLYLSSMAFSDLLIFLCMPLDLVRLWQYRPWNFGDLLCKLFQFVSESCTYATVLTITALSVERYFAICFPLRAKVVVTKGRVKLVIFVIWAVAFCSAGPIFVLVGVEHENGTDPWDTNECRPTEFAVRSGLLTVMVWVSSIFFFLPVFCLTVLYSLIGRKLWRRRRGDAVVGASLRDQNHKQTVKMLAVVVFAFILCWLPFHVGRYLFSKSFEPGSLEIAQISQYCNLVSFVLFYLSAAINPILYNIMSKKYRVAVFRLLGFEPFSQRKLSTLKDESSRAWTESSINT
hV1bR, sequence (P47901 whole entry): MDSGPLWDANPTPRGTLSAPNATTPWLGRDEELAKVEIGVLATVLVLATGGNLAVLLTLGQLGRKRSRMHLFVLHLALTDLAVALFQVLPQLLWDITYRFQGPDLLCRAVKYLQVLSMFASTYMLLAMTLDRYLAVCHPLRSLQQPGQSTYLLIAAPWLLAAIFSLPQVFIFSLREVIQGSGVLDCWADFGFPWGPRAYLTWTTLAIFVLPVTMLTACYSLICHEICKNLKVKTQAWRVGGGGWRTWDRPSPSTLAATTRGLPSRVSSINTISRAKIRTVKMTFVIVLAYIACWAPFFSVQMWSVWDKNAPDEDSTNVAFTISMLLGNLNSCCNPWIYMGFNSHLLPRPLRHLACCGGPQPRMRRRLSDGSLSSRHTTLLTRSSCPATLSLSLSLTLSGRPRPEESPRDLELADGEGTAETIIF

CC(C)(N)C(=O)N[C@H](COCc1ccccc1)C(=O)N1CCC2(CC1)CN(S(C)(=O)=O)c1ccccc12 [MK0677]
formation of fluorescent ERCs on co-incubation with excess competitor (GHSR-1a receptor): blocked the formation of fluorescent ERCs

CC[C@H](NC(=O)c1c(C)c(-c2ccccc2)nc2ccccc12)c1ccccc1 [SB222200]
formation of fluorescent ERCs on co-incubation with excess competitor (NK3R [1]): blocked the formation of fluorescent ERCs
NK3R mediated internalization of fluorescent ligand with excess competitor (NK3R [2]; 1 μM competitor (FIG. 5)): blocked
SSTR-5 internalization with excess competitor (SSTR-5): no effect
amount of internalized Atto590-SST14 with increasing amount of competitor (SSTR-5; dose response (FIG. 6)): unaffected

Arg-8-Vasopressin
formation of fluorescent ERCs on co-incubation with excess competitor (hV1bR): blocked the formation of fluorescent ERCs in most cells

Somatostatin-14 [SST14]
formation of fluorescent ERCs on co-incubation with excess competitor [3]: block the formation of fluorescent ERCs
intensity of Atto655-NKB in ERCs with increasing amount of competitor (NK3R [2]; dose response (FIG. 6)): unchanged
SSTR-5 internalization with excess competitor (SSTR-5): inhibited in a selective manner
